Molecular target: angiotensin II AT1 receptor
Assay: Assay A: Angiotensin II binding activity, rat uterine membrane preparation, 125I-AII displacement
Experimental: Assay A: Antiotensin II Binding Activity
Compounds of the invention were tested for ability to bind to the smooth muscle angiotensin II receptor using a rat uterine membrane preparation. […] Rat uterine membranes were prepared from fresh tissue. All procedures were carried out at 4° C. Uteri were stripped of fat and homogenized in phosphate-buffered saline at pH 7.4 containing 5 mM EDTA. The homogenate was centrifuged at 1500×g for 20 min., and the supernatant was recentrifuged at 100,000×g for 60 min. The pellet was resuspended in buffer consisting of 2 mM EDTA and 50 mM Tris-HCl (pH 7.5) to a final protein concentration of 4 mg/ml. […] The reaction was initiated by the addition of membrane protein and the mixture was incubated at 25° C. for 60 min. The incubation was terminated with ice-cold 50 mM Tris-HCl (pH 7.5) and the mixture was filtered to separate membrane-bound labelled peptide from the free ligand. The incubation tube and filter were washed with ice-cold buffer. Filters were assayed for radioactivity in a Micromedic gamma counter. Nonspecific binding was defined as binding in the presence of 10 μM of unlabelled AII. Specific binding was calculated as total binding minus nonspecific binding. […] Binding data were analyzed by a nonlinear least-squares curve fitting program.

| IC50 | Structure (SMILES) |
| --- | --- |
| 83 nM | CCCCCCCCc1nc(CCCC)n(Cc2ccc(-c3ccccc3-c3nnn[nH]3)cc2)n1 [Compound 40] |
| 90 nM | CCCn1nc(C(F)F)nc1Cc1ccc(-c2ccccc2-c2nnn[nH]2)nc1 [Compound 173] |
| 110 nM | CCCCc1cn(-c2c(C)cccc2Cl)c(=O)n1Cc1ccc(-c2ccccc2-c2nnn[nH]2)nc1 [Compound 242] |
| 3700 nM | CCCCc1nc(C(=O)CCC)nn1Cc1ccc(-c2ccccc2-c2nnn[nH]2)cc1 [Compound 41] |
| 2200 nM | CCCCc1nc(C=O)nn1Cc1ccc(-c2ccccc2-c2nnn[nH]2)cc1 [Compound 60] |
| 420 nM | CCCCn1nc(CCC)nc1Cc1ccc(-c2ccccc2-c2nnn[nH]2)nc1 [Compound 163] |
| 640 nM | CCCCc1nc(C(OC)OC)n(Cc2ccc(-c3ccccc3-c3nnn[nH]3)cc2)n1 [Compound 34] |
| 180 nM | CCCCc1nc(CCC(C)C)n(Cc2ccc(-c3ccccc3-c3nnn[nH]3)cc2)n1 [Compound 27] |
| 10 nM | CCCCc1nc(CN)nn1Cc1ccc(-c2ccccc2-c2nnn[nH]2)cc1 [Compound 38] |
| 13 nM | CCCCc1nc(CCCC)n(Cc2ccc(-c3ccccc3-c3nnn[nH]3)nc2)n1 [Compound 252] |
| 28 nM | CCCCc1nc(Cc2ccc(-c3ccccc3-c3nnn[nH]3)nc2)n(CCCC)n1 [Compound 161] |
| 430 nM | CCCc1nc(CCC)n(Cc2ccc(-c3ccccc3-c3nnn[nH]3)cc2)n1 [Compound 23] |
| 46 nM | CCCCc1nc2c(O)nnc(O)c2n1Cc1ccc(-c2ccccc2-c2nnn[nH]2)cc1 [Compound 122] |
| 5 nM | CCCCc1nc(CCCO)nn1Cc1ccc(-c2ccccc2-c2nnn[nH]2)cc1 [Compound 56] |
| 680 nM | CCCCc1nc(CC(OCC)OCC)n(Cc2ccc(-c3ccccc3-c3nnn[nH]3)cc2)n1 [Compound 48] |
| 110 nM | CCCCc1nc(C(=O)Cc2ccccc2)nn1Cc1ccc(-c2ccccc2-c2nnn[nH]2)cc1 [Compound 61] |
| 390 nM | CCCCn1nc(C(=O)NC)nc1Cc1ccc(-c2ccccc2-c2nnn[nH]2)nc1 [Compound 183] |
| 2.6 nM | CCCCc1nc(CCCC)n(Cc2ccc(-c3cccnc3-c3nnn[nH]3)cc2)n1 [Compound 253] |
| 25 nM | CCCCc1nc(CCCC)n(Cc2ccc(-c3ccccc3C(=O)O)nc2)n1 [Compound 251] |
| 15 nM | CCCCc1nc(CCCC2CCCCC2)nn1Cc1ccc(-c2ccccc2-c2nnn[nH]2)cc1 [Compound 69] |
| 380 nM | CCCCn1nc(CCc2ccccc2)nc1Cc1ccc(-c2ccccc2-c2nnn[nH]2)nc1 [Compound 162] |
| 2 nM | CCCCn1nc(CCc2ccccc2)nc1Cc1ccc(-c2ccccc2-c2nnn[nH]2)cc1 [Compound 142] |
| 98 nM | CCCCc1cn(-c2c(CC)cccc2CC)c(=O)n1Cc1ccc(-c2ccccc2-c2nnn[nH]2)nc1 [Compound 245] |
| 120 nM | CCCCc1cn(-c2ccccc2C(C)(C)C)c(=O)n1Cc1ccc(-c2ccccc2-c2nnn[nH]2)nc1 [Compound 240] |
| 93 nM | CCCCc1cn(-c2ccccc2)c(=O)n1Cc1ccc(-c2ccccc2-c2nnn[nH]2)nc1 [Compound 226] |

| IC50 | Structure (SMILES) |
| --- | --- |
| 87 nM | CCCCc1nc(C(F)(F)CCC)nn1Cc1ccc(-c2ccccc2-c2nnn[nH]2)cc1 [Compound 21] |
| 630 nM | CCCCc1nc(-c2ccccc2)n(Cc2ccc(-c3ccccc3-c3nnn[nH]3)cc2)n1 [Compound 33] |
| 31 nM | CCCCc1cn(CCCC)c(=O)n1Cc1ccc(-c2ccccc2-c2nnn[nH]2)nc1 [Compound 196] |
| 34 nM | CCCCc1nc(Cc2ccc(-c3ccccc3-c3nnn[nH]3)nc2)n(CC(C)(C)C)n1 [Compound 195] |
| 160 nM | CCCCc1cn(C23CC4CC(CC(C4)C2)C3)c(=O)n1Cc1ccc(-c2ccccc2-c2nnn[nH]2)nc1 [Compound 225] |
| 14 nM | CCCc1cn(CCC)c(=O)n1Cc1ccc(-c2ccccc2-c2nnn[nH]2)nc1 [Compound 197] |
| 290 nM | CCCCc1nc(C(=O)N(C)C(C)(C)C)nn1Cc1ccc(-c2ccccc2-c2nnn[nH]2)nc1 [Compound 266] |
| 91 nM | CCCCc1cn(C2C3CC4CC(C3)CC2C4)c(=O)n1Cc1ccc(-c2ccccc2-c2nnn[nH]2)nc1 (centres unmarked) [Compound 224] |
| 80 nM | CCCCc1nc(Cc2ccccc2)nn1Cc1ccc(-c2ccccc2-c2nnn[nH]2)cc1 [Compound 55] |
| 370 nM | CCCCc1nc(C(=O)CCC)nn1Cc1ccc(-c2ccccc2-c2nnn[nH]2)cc1 [Compound 42] |
| 140 nM | CCCCn1nc(C(OCCC)OCCC)nc1Cc1ccc(-c2ccccc2-c2nnn[nH]2)nc1 [Compound 188] |
| 99 nM | CCCCc1cn(CCC)c(=O)n1Cc1ccc(-c2ccccc2-c2nnn[nH]2)nc1 [Compound 207] |
| 51 nM | CCCCc1cn(CC(C)(C)C)c(=O)n1Cc1ccc(-c2ccccc2-c2nnn[nH]2)nc1 [Compound 213] |
| 44 nM | CCCCc1nc(CF)nn1Cc1ccc(-c2ccccc2-c2nnn[nH]2)cc1 [Compound 70] |
| 570 nM | CCCCc1nc(CCC(=O)O)n(Cc2ccc(-c3ccccc3-c3nnn[nH]3)cc2)n1 [Compound 75] |
| 110 nM | CCCCc1nc(CCc2ccccc2)n(Cc2ccc(-c3ccccc3-c3nnn[nH]3)nc2)n1 [Compound 265] |
| 45 nM | CCCCc1cn(CC(CC)CC)c(=O)n1Cc1ccc(-c2ccccc2-c2nnn[nH]2)nc1 [Compound 215] |
| 5800 nM | CCCCc1nn(CC(O)c2ccccc2)c(=O)n1Cc1ccc(-c2ccccc2-c2nn[nH]n2)cc1 (centres unmarked) [Compound 94] |
| 16 nM | CCCCc1nc(C)n(Cc2ccc(-c3ccccc3-c3nnn[nH]3)cc2)n1 [Compound 44] |
| 770 nM | CCCCn1nc(C(OCC)OCC)nc1Cc1ccc(-c2ccccc2-c2nnn[nH]2)nc1 [Compound 187] |
| 8.6 nM | CCCCc1nc(CCCC2CCCCC2)n(Cc2ccc(-c3ccccc3-c3nnn[nH]3)cc2)n1 [Compound 68] |
| 9 nM | CCCCc1cn(C2CCCC2)c(=O)n1Cc1ccc(-c2ccccc2-c2nnn[nH]2)nc1 [Compound 218] |
| 46 nM | CCCCc1nc2c(Cl)nnc(Cl)c2n1Cc1ccc(-c2ccccc2-c2nnn[nH]2)cc1 [Compound 121] |
| 220 nM | CCCCc1nc(CC(C)(C)C)nn1Cc1ccc(-c2ccccc2-c2nnn[nH]2)nc1 [Compound 260] |
| 120 nM | CCCCc1nc(C(F)F)n(Cc2ccc(-c3ccccc3-c3nnn[nH]3)cc2)n1 [Compound 59] |

| IC50 | Structure (SMILES) |
| --- | --- |
| 12 nM | CCCCc1nc(C23CC4CC(CC(C4)C2)C3)n(Cc2ccc(-c3ccccc3-c3nnn[nH]3)cc2)n1 [Compound 66] |
| 57 nM | CCCCc1nc(CC(CC)CC)n(Cc2ccc(-c3ccccc3-c3nnn[nH]3)nc2)n1 [Compound 263] |
| 19 nM | CCCCc1nc(C)nn1Cc1ccc(-c2ccccc2-c2nnn[nH]2)cc1 [Compound 43] |
| 480 nM | CCCCc1nn(CC(=O)c2ccccc2)c(=O)n1Cc1ccc(-c2ccccc2-c2nn[nH]n2)cc1 [Compound 93] |
| 11 nM | CCCCc1nc(CCc2ccccc2)nn1Cc1ccc(-c2ccccc2-c2nnn[nH]2)nc1 [Compound 264] |
| 16 nM | CCCCc1nc(-c2ccccc2)nn1Cc1ccc(-c2ccccc2-c2nnn[nH]2)cc1 [Compound 32] |
| 54 nM | CCCCc1nc(C(F)(F)CCC)n(Cc2ccc(-c3ccccc3-c3nnn[nH]3)nc2)n1 [Compound 259] |
| 250 nM | CCCCc1cn(-c2c(C)cc(C)cc2C)c(=O)n1Cc1ccc(-c2ccccc2-c2nnn[nH]2)nc1 [Compound 243] |
| 21 nM | CCCCc1nc(-c2ccccc2)nn1Cc1ccc(-c2ccccc2-c2nnn[nH]2)nc1 [Compound 270] |
| 50 nM | CCCCc1nc2c(OCC)nnc(OCC)c2n1Cc1ccc(-c2ccccc2-c2nnn[nH]2)cc1 [Compound 123] |
| 29 nM | CCCCn1nc(C(OC(C)C)OC(C)C)nc1Cc1ccc(-c2ccccc2-c2nnn[nH]2)nc1 [Compound 189] |
| 59 nM | CCCCn1nc(C(=O)N(C)C(C)(C)C)nc1Cc1ccc(-c2ccccc2-c2nnn[nH]2)nc1 [Compound 182] |
| 1700 nM | CCCCn1nc(CCc2cccs2)nc1Cc1ccc(-c2ccccc2-c2nnn[nH]2)nc1 [Compound 164] |
| 5 nM | CCCCc1cn(CCC2CCCC2)c(=O)n1Cc1ccc(-c2ccccc2-c2nnn[nH]2)nc1 [Compound 222] |
| 9.7 nM | CCCCc1nc(C(=O)NC)n(Cc2ccc(-c3ccccc3-c3nnn[nH]3)nc2)n1 [Compound 269] |
| 140 nM | CCCCn1nc(C2OCC(C)(C)CO2)nc1Cc1ccc(-c2ccccc2-c2nnn[nH]2)nc1 [Compound 192] |
| 3.6 nM | CCCCc1cn(CCCC)c(=O)n1Cc1ccc(-c2ccncc2-c2nnn[nH]2)cc1 [Compound 237] |
| 160 nM | CCCCc1ncnn1Cc1ccc(-c2ccccc2C(=O)O)cc1 [Compound 29] |
| 570 nM | CCCCc1nc(CCC(C)C)nn1Cc1ccc(-c2ccccc2-c2nnn[nH]2)cc1 [Compound 28] |
| 14 nM | CCCCc1cn(CC2CCCC2)c(=O)n1Cc1ccc(-c2ccccc2-c2nnn[nH]2)nc1 [Compound 219] |
| 72 nM | CCCCc1nc(CCCC)n(Cc2ccc(-c3ccncc3-c3nnn[nH]3)cc2)n1 [Compound 254] |
| 18 nM | CCCCc1nc(CC(C)(C)C)n(Cc2ccc(-c3ccccc3-c3nnn[nH]3)nc2)n1 [Compound 261] |
| 65 nM | CCCCc1cn(CCC(C)(C)C)c(=O)n1Cc1ccc(-c2ccccc2-c2nnn[nH]2)nc1 [Compound 214] |

| Structure (SMILES) | IC50 |
| --- | --- |
| C[C@]12CCC(=O)C=C1C1CC1[C@H]1[C@@H]3CC[C@@](O)(CCC(=O)O)[C@@]3(C)CC3O[C@]312 (some centres unmarked) [Compound 8] | 17000 nM |

— US20040102423A1, “Spironolactone and angiotensin II antagonist combination therapy for treatment of congestive heart failure” (G.D. Searle & Co., priority 1995, published 2004)
